Results: patent publication US20160129005A1, “ADENINE DERIVATIVES HAVING IMMUNOMODULATING ANTI-INFLAMMATORY AND ANALGESIC ACTIVITY” (MEDESTEA RESEARCH & PRODUCTION S.p.A., priority 2011, published 2016)

Legend:
[1] = tested on: C57BL/6 mice transplanted with BALB/c hearts; assay: Murine heterotopic heart transplant model; type: in vivo, mouse; conditions: Rapamycin alone 0.1 mg/kg day 0 to day 10; n=5; Ctrl MST=7
Protocol: The immunosuppressive potential of […] was tested on a heterotopic heart transplant model; hearts of BALB/c mice were transplanted into the abdominal cavity of C57BL/6 mice.
The beats of the heart were measured, twice weekly, by palpation; stopping of beating was regarded as a sign of transplant rejection.
Three different protocols were used for prolonging transplant survival times: the “short-term” protocol ([…] 9 mg/kg daily for 14 days), the “long-term” protocol ([…] 9 mg/kg every day until rejection), and the “Combo” protocol ([…] on alternate days: day 0, 2, 4, 6, 8, 10, 12, 14+Rapamycin 0.1 mg/kg from day 0 to day 10).
In the acute heart transplant models, the hearts of BALB/c were transplanted into the peritoneal cavity of C57BL/6 mice. The control mice invariably reject the transplant in 10 days (Ctrl: MST=7 days, n=12), (FIG. 26). The “short-term” protocol permitted indefinite survival (100 days) in 10 mice out of 12 (n=12; p=0.0001 vs. Ctrl), (FIG. 26). Similarly, the “long-term” protocol permitted indefinite survival in 8 mice out of 10 (n=10; p=0.002 vs Ctrl), and prolonged survival in the remaining 2 (16 days and 25 days; p=0.002 vs. Ctrl), (FIG. 26).
The histological sections of the hearts on day 7 of BALB/c mice, transplanted into a C57BL/6 host, and treated with the “short-term” protocol, were also analysed.

[2] = tested on: Swiss CD1 mice; assay: CFA thermal hyperalgesia, synergy with opioids
Protocol: We compared the activity of […] with that of the opioids to study its analgesic effect.
Mice of the Swiss CD1 type were given a single intraplantar injection of 30 microlitres of complete Freund adjuvant (CFA) in the right plantar pad. Intraperitoneal injection of […] and/or of morphine (morphine chlorhydrate, Molteni) was administered 24 hours after injection of CFA according to the following scheme:
1. […] 7.5 mg/kg; 2. […] 10 mg/kg; 3. […] 200 mg/kg; 4. […] 50 mg/kg; 5. Morphine 0.4 mg/kg; 6. Morphine 2.5 mg/kg; 7. Morphine 1 mg/kg; 8. Morphine 0.4 mg/kg; 9. Morphine 1 mg/kg+[…] 10 mg/kg; 10. Morphine 0.4 mg/kg+[…] 10 mg/kg; 11. Morphine 1 mg/kg+[…] 10 mg/kg; 12. Morphine 0.4 mg/kg+[…] 10 mg/kg; 13. Morphine 4 mg/kg.
Groups 9-11 and 10-12 have the same doses respectively; they were repeated to confirm the results.
Thermal hyperalgesia was assessed using the Ugo Basile apparatus (Comerio, Italy).
The test was carried out before (baseline values) injection of CFA, after injection of CFA and 0.5, 1, 2, 3, 6 and 12 hours after injecting the drug in the inflamed pad.

Row | SMILES | MST (mean survival time) [1] [days] | obsessive-compulsive disorders (behaviour) ([2]; morphine 2.5 mg/kg or higher doses) | activity on nociception ([2]; morphine alone i.p. at the highest dose)
1 | CO[C@H]1C[C@@H]2CC[C@@H](C)[C@@](O)(O2)C(=O)C(=O)N2CCCC[C@H]2C(=O)O[C@H]([C@H](C)C[C@@H]2CC[C@@H](O)[C@H](OC)C2)CC(=O)[C@H](C)/C=C(\C)[C@@H](O)[C@@H](OC)C(=O)[C@H](C)C[C@H](C)/C=C/C=C/C=C/1C [Rapamycin, reference compound] | 25 |  | 
2 | CN1CC[C@]23c4c5ccc(O)c4O[C@H]2[C@@H](O)C=C[C@H]3[C@H]1C5 [morphine, morphine chlorhydrate, reference compound] |  | displayed obsessive-compulsive disorders | anaesthetic-like
